Reference: patent publication US20260337153A1, “IONIZABLE AMINE LIPIDS” (Intellia Therapeutics, Inc., priority 2023, published 2026)
Where two headings read alike, the source gives them in different places.

Experiments:
[1] = pKa of unformulated amine lipid by TNS fluorescence; type: physicochemical
Experimental: The pKa of each amine lipid was determined according to the method in Jayaraman, et al. (Angew Chem Int Ed Engl 51(34), 2012, 8529-8533) with the following adaptations. The pKa was determined for unformulated amine lipid in ethanol. Lipid stock solutions (2.94 mM) were diluted into Sodium Phosphate Buffers (0.1 M, Boston Bioproducts) of different pH (pH-range: 4.5-9.0) yielding a final lipid concentration of approx. 100 μM. The test samples were supplemented with TNS {6-(p-Toluidino)-2-naphthalenesulfonic acid sodium salt}, incubated and the fluorescence intensity was measured using excitation and emission wavelengths of 321 nm and 448 nm, respectively. The recorded data were normalized and the respective pKa values were derived from sigmoidal fitting.

rat TTR gene = assay: In vivo editing of TTR in rat liver after LNP delivery (NGS, % editing); design: species or system rat (Sprague-Dawley)
Experimental: LNPs were prepared using various amine lipids in a 4-component lipid system consisting of an ionizable lipid (e.g., an amine lipid), DSPC, cholesterol and a PEG lipid (e.g., PEG2K-DMG, C13 Ether, C14 Ether). In assays for percent liver editing in rats, Cas9 mRNA and chemically modified sgRNA targeting a rat sequence were formulated in LNPs, at either a 1:1 w/w ratio or a 1:2 w/w sgRNA:Cas9 mRNA ratio.
The lipid components were dissolved in 100% ethanol with the lipid component molar ratios described below. The chemically modified sgRNA and Cas9 mRNA were combined and dissolved in 25 mM citrate, 100 mM NaCl, pH 5.0, resulting in a concentration of total RNA cargo of approximately 0.45 mg/mL. The LNPs were formulated with an N:P ratio of about 6, with the ratio of chemically modified sgRNA:Cas9 mRNA at either a 1:1 or 1:2 w/w ratio as described below.
The LNPs were formed by an impinging jet mixing of the lipid in ethanol with two volumes of RNA solution and one volume of water. First, the lipid in ethanol is mixed through a mixing cross with the two volumes of RNA solution. Then, a fourth stream of water is mixed with the outlet stream of the cross through an inline tee. (See, e.g., WO2016010840, FIG. 2). The LNPs were held for 1 hour at room temperature, and further diluted with water (approximately 1:1 v/v). Diluted LNPs were buffer exchanged into 50 mM Tris, 45 mM NaCl, 5% (w/v) sucrose, pH 7.5 (TSS) and concentrated as needed by methods known in the art. The resulting mixture was then filtered using a 0.2 μm sterile filter. The final LNP was stored at 4° C. or −80° C. until further use.
Sprague-Dawley female rats, ranging from 6-10 weeks of age were used in each study. Animals were weighed and dosed based on individual body weight measured the morning of dosing. LNPs were dosed via the lateral tail vein in a volume of 2 mL per kilogram of animal body weight. The animals were periodically observed for adverse effects for at least 24 hours post dose.
For studies measuring in vivo editing in liver, Sprague-Dawley female rats were dosed at 0.1 mpk or 0.03 mpk, unless otherwise noted. Animals were euthanized at 6 or 7 days by carbon dioxide asphyxiation and a heart clip or by ex sanguination via cardiac puncture under isoflourane anesthesia. Blood was collected into serum separator tubes. Liver tissue was collected. Genomic DNA was isolated from the liver tissue for editing measurement by Next-Generation Sequencing (NGS).
In brief, to quantitatively determine the efficiency of editing at the target location in the genome, genomic DNA was isolated and deep sequencing was utilized to identify the presence of insertions and deletions introduced by gene editing.
PCR primers were designed around the target site (e.g., TTR), and the genomic area of interest was amplified. Additional PCR was performed according to the manufacturer's protocols (Illumina) to add the necessary chemistry for sequencing. The amplicons were sequenced on an Illumina MiSeq instrument. The reads were aligned to the […] after eliminating those having low quality scores. The resulting files containing the reads were mapped to the reference genome (BAM files), where reads that overlapped the target region of interest were selected and the number of wild type reads versus the number of reads which contain an insertion, substitution, or deletion was calculated.
The editing percentage (e.g., the “indel efficiency” or “percent indels” or “% editing” or “% indel”) can be defined as the total number of sequence reads with insertions or deletions over the total number of sequence reads, including wild type.
In vivo editing efficiency for materials delivered with formulations including various amine lipid (or ionizable lipid) compounds in Experiments 1 through 14 as described in Tables 3 and 4 was assessed. Editing was measured using G000534 (SEQ ID NO: 5) which targets the rat TTR gene. […]

[2] = sodium phosphate buffer, Table 2, unformulated amine lipid, TNS, read-out: Lipid pKa
[3] = Experiment 14, 0.03 mpk, LNP with C13 Ether
[4] = Experiment 7, 0.1 mpk, LNP with PEG2K-DMG

SMILES	pKa [1, 2]	Mean % editing (rat TTR gene; [4])	other results
CCCCC/C=C\C/C=C\CCCCCCCC(=O)OCC(CCCCCCCCC(=O)OC(CCCC)CCCC)COC(=O)OCCCN(CC)CC (stereo not drawn) [Compound 21, 2-((((3-(diethylamino)propoxy)carbonyl)oxy)methyl)-11-(nonan-5-yloxy)-11-oxoundecyl (9Z,12Z)-octadeca-9,12-dienoate]	6.2		
CCCCCCCCC(CCCCCCCC)OC(=O)CCCCCC(=O)OCC(COC(=O)CCCCCC(=O)OC(CCCCCCCC)CCCCCCCC)COC(=O)NCCN(CC)CC [Compound 38, O′1,O1-(2-((((2-(diethylamino)ethyl)carbamoyl)oxy)methyl)propane-1,3-diyl) 7,7′-di(heptadecan-9-yl) di(heptanedioate)]	6.56		Mean % editing (rat TTR gene; [3]): 19.4%
CCCCCCCCC(CCCCCCCC)C(=O)OCCCC(=O)OCC(COC(=O)CCCOC(=O)C(CCCCCCCC)CCCCCCCC)COC(=O)NCCN(CC)CC [Compound 39, [4-[2-[2-(diethylamino)ethylcarbamoyloxymethyl]-3-[4-(2-octyldecanoyloxy)butanoyloxy]propoxy]-4-oxo-butyl]2-octyldecanoate]	6.63		Mean % editing (rat TTR gene; [3]): 11.3%
CCCCCCCCOC(CCC(=O)OCC(COC(=O)CC(CCCC)CCCCCC)COC(=O)NCCN(CC)CC)OCCCCCCCC (stereo not drawn) [Compound 44, 3-((4,4-bis(octyloxy)butanoyl)oxy)-2-((((2-(diethylamino)ethyl)carbamoyl)oxy)methyl)propyl 3-butylnonanoate]		59.8%	
CCCCCCCCOC(CCC(=O)OCC(COC(=O)CCCCCCCC)COC(=O)OCCCN(CC)CC)OCCCCCCCC (stereo not drawn) [Compound 45, 3-((4,4-bis(octyloxy)butanoyl)oxy)-2-((((3-(diethylamino)propoxy)carbonyl)oxy)methyl)propyl Nonanoate]		1.8%	
CCCCCCCCOC(CCC(=O)OCC(COC(=O)CCCCCCCC)COC(=O)NCCN(CC)CC)OCCCCCCCC (stereo not drawn) [Compound 46, 3-((4,4-bis(octyloxy)butanoyl)oxy)-2-((((2-(diethylamino)ethyl)carbamoyl)oxy)methyl)propyl Nonanoate]		0.2%	
CCCCCCCCOC(CCC(=O)OCC(COC(=O)OCCCN(CC)CC)COC(=O)C(CCCC)CCCCCC)OCCCCCCCC (stereo not drawn) [Compound 47, 3-((4,4-bis(octyloxy)butanoyl)oxy)-2-((((3-(diethylamino)propoxy)carbonyl)oxy)methyl)propyl 2-butyloctanoate]		56.3%	
CCCCC/C=C\C/C=C\CCCCCCCC(=O)OCC(COC(=O)CCCC(=O)OC(CCCCCCCC)CCCCCCCC)COC(=O)OCC1CCCN(CC)C1 (stereo not drawn) [Compound 62, 3-((((1-ethylpiperidin-3-yl)methoxy)carbonyl)oxy)-2-((((9Z,12Z)-octadeca-9,12-dienoyl)oxy)methyl)propyl heptadecan-9-yl glutarate]			Mean % editing (rat TTR gene; Table 8, 0.03 mpk, LNP with C13 Ether): 28.0%
CCCCCCCCC(CCCCCCCC)OC(=O)CCCCC(=O)OCC(COC(=O)CCCCC(=O)OC(CCCCCCCC)CCCCCCCC)COC(=O)OCCCN1CCCC1 [Compound 69, di(heptadecan-9-yl) O,O′-(2-((((3-(pyrrolidin-1-yl)propoxy)carbonyl)oxy)methyl)propane-1,3-diyl) diadipate]			pKa ([1]; read-out: pKa): 6.4; Mean % editing in rat liver (rat TTR gene; NGS, dose 0.03 mpk, LNP with G000534 sgRNA and Cas9 mRNA 1:2 w/w, 3% C13 Ether (Compound 53: 3% PEG2K-DMG), N=5 (Compound 33: N=4)): 7.3%
